# Assay results reported in patent US8637494B2, “Method of achieving normoglycemia in diabetics by administration of Withaferin A” (priority 2010, dated 2014).
# Key:
# [1] = test system: inflammatory gene expression in human islets; test: RT-PCR human inflammation gene array, cytokine-treated islets; type: cell-based
# Procedure: Cytokine & Withaferin A Treatment: After isolation and overnight culture, islets were subjected to an in-vitro model of inflammatory conditions with a cytokine cocktail of the species specific recombinant proteins (1,000 U/mL TNF-α, 1,000 U/mL IFN-γ, and 50 U/mL IL-1β dissolved in human or mouse islet culture media). Islets were treated by Withaferin A co-culture at concentrations ranging from 0.25 to 2.0 μg/mL. Control islets were cultured in the appropriate culture media lacking both the cytokine cocktail and Withaferin A. All islets were cultured in a humidified incubation chamber at 37° C. with 5% CO2 for the indicated time.
# [2] = test system: RANTES, IP10, MIG, IL-1β, iNOS expression in human islets; test: RT-PCR single gene primer assays, dose and time course in human islets; type: cell-based
# Procedure: Cytokine & Withaferin A Treatment: After isolation and overnight culture, islets were subjected to an in-vitro model of inflammatory conditions with a cytokine cocktail of the species specific recombinant proteins (1,000 U/mL TNF-α, 1,000 U/mL IFN-γ, and 50 U/mL IL-1β dissolved in human or mouse islet culture media). […] Control islets were cultured in the appropriate culture media lacking both the cytokine cocktail and Withaferin A. All islets were cultured in a humidified incubation chamber at 37° C. with 5% CO2 for the indicated time.
# [3] = In vivo intraportal syngeneic islet transplant in STZ diabetic mice; design: species or system C57BL/6 mice
# Procedure: Intraperitoneal glucose tolerance test was performed on day 30 post transplant to assess glycemic control of Withaferin A-treated and vehicle-treated (11E) mice; also naïve and STZ-induced diabetic mice were challenged with glucose for comparison. After 12-14 hours of fasting, mice were injected with a 5% glucose solution (1 mg/kg body weight) and blood glucose levels were monitored at 0, 30, and 120 minutes afterwards. […] After thirty days, hepatectomy of recipient mice was performed and the liver was fixed in formalin, embedded in paraffin and stained for insulin (11F) and H&E (11G).
# In-vivo Intraportal Transplant: Diabetes was induced in by injecting streptozomycin (STZ 180 mg/kg, 9 mg/mL dissolved in DPBS) into the tail vein. Accu-Chek Aviva® (Roche Diagnostics, Indianapolis, Ind.) was used to monitor blood glucose from the tail vein, and mice were considered diabetic, when their blood glucose was measured as greater than 350 dg/mL for two days in a row. Mice were anesthetized with avertin (20 mg/mL, 0.5 mL/mouse), then two hundred islets were injected into the portal vein by puncturing the portal vein through the pancreas with a 27 gauge, hypodermic needle attached to a glass syringe. The peritoneum was first closed with 5-0 black silk sutures, and before sealing this closure, Withaferin A (25 ug, 0.5 mL/mouse) or vehicle (DPBS) was injected into the peritoneal space. […]
# To determine only the anti-inflammatory effects of Withaferin A on islet transplantation, a syngeneic model was used. […] It was determined that 400 islets are required for successful transplantation into the portal vein of the liver for mice.
# Daily intraperitoneal injections of Withaferin A (25 μg, 0.5 mL/mouse) for seven days post-transplant beginning immediately after islet infusion were performed on six mice. […] After 12 to 14 hours of fasting, mice were injected with a 5% glucose solution (2 mg/kg body weight) and blood sugar levels were measured at zero, thirty, and one hundred twenty minutes after the injection.
# human β cells = test: TUNEL assay on sections, cytokine mediated beta cell apoptosis; type: cell-based; conditions: cytokine + 1.0 μg/mL, twenty four hours, vs control
# Procedure: Islets were protected from cytokine damage by Withaferin A at both time points. Islet potency was assessed by stimulation index after 24 hours. […] Graphical representations (10E-10G) are expressed as means±STD. Significant differences between mean values groups as determined by Turkey-Kramer post-hoc tests are indicated by an asterisk (*p<0.05) above bars; and
# TUNEL Assay: The TUNEL assay was performed with ApopTag® fluorescein in situ apoptosis detection kit. After deparaffinization of samples, antigen retrieval was performed with proteinase K and insulin staining was performed as described previously. Next, digoxigenin labeled nucleotides were added to DNA fragments by the enzyme terminal deoxynucelotidyl transferase (TdT) by incubation at 37° C. for 1 hour. Fluorescein labeled anti-digoxigenin antibodies are bound to the digoxigenin by incubation at room temperature for 30 minutes. Lastly DAPI is stained as described above, and slides are mounted with VecataShield and visualized with fluorescent microscopy. Apoptotic cells are counted as those that appear fluorescently green in the nuclei of insulin positive cells. All nuclei of insulin positive cells were counted and percentage of TUNEL^+ cells was calculated as number of TUNEL positive nuclei divided by the total number of insulin positive beta cells. At least 300 nuclei were counted for each condition. […]
# [4] = IPGTT on day 30 post transplant; type: in vivo, C57BL/6 mice
# Procedure: Intraperitoneal glucose tolerance test was performed on day 30 post transplant to assess glycemic control of Withaferin A-treated and vehicle-treated (11E) mice; also naïve and STZ-induced diabetic mice were challenged with glucose for comparison. After 12-14 hours of fasting, mice were injected with a 5% glucose solution (1 mg/kg body weight) and blood glucose levels were monitored at 0, 30, and 120 minutes afterwards.
# IPGTT: Naïve, transplanted, and STZ induced diabetic mice were used to perform an intraperitoneal glucose tolerance test. The mouse's food was removed for 12-14 hours, then an injection of glucose (1 mg/kg body weight, 5% glucose solution in DPBS) was administered intraperitoneally. Blood glucose was monitored with Accu-Chek at 0, 30, and 120 minutes after the injection.
# To evaluate the islet graft function, IPGTT was performed on cured mice and vehicle treated mice on day 30. To control for the pattern in islet function, naïve and STZ-induced diabetic mice were tested as well. After 12 to 14 hours of fasting, mice were injected with a 5% glucose solution (2 mg/kg body weight) and blood sugar levels were measured at zero, thirty, and one hundred twenty minutes after the injection.
structure (smiles),measurement,setting,value
CC1=C(CO)C(=O)O[C@@H]([C@@H](C)[C@H]2CC[C@H]3[C@@H]4C[C@H]5O[C@]56[C@@H](O)C=CC(=O)[C@]6(C)[C@H]4CC[C@]23C)C1 [Withaferin A],"inflammatory gene expression, Withaferin A treated group vs control","[1]; Withaferin A alone, no cytokines",no significant difference
same,"inflammatory gene expression, cytokine and Withaferin A group vs cytokine alone group","[1]; human islets, FIG. 1B",significantly down regulated
same,inhibition of inflammatory gene expression (FIG. 1C),"[1]; human islets, cytokine cocktail + Withaferin A vs cytokine alone, all three donors",60%-100
same,"expression level of IL-1β, RANTES, MIG and IP-10 vs cytokine alone","[2]; 1 μg Withaferin A and cytokines, 12, 24, 36 and 48 hour",significantly inhibited
same,"expression of RANTES, IP10, MIG, IL-1β and iNOS","[2]; 0.5, 1, 2 and 4 μg per mL with cytokines",decreased with the increase in Withaferin A concentration
same,success rate (recipients achieving normoglycemia),"[3]; 200 islet isograft, 25 μg i.p. daily for 7 days (vehicle 0%)",83%
same,mice with amelioration of diabetes / mice treated,"[3]; 200 islet isograft, 25 μg i.p. daily for 7 days (vehicle 0/5)",5/6
same,ideal dose in the in vivo mouse model,[3]; doses from 2.5 to 50 μg/mouse tested,25 µg
same,cytokine induced β cell apoptosis (TUNEL positive staining),human β cells,totally cancel any effect of cytokines on β cell apoptosis
same,"blood glucose, IPGTT","[4]; 0 minutes, day 30 (vehicle 485±95.4)",150.3 ± 89.2 mg/dL
same,"blood glucose, IPGTT","[4]; 30 minutes, day 30 (vehicle 523.8±95.3)",267.8 ± 84.8 mg/dL
